According to patent US9221795B2, “Phosphatidylinositol 3-kinase inhibitors” (Gilead Sciences, Inc., priority 2013, dated 2015):

What was measured:
basophils = experiment: Basophil activation in human whole blood (Flow2 CAST kit, CD63 flow cytometry); format: cell-based; settings: human whole blood, basophils activated with anti-FcεRI mAb or fMLP, percent CD63 positive cells
Procedure: Effect on basophil activation was measured in human whole blood using the Flow2 CAST® kit (Buhlmann Laboratories AG, Baselstrasse, Switzerland) following the protocol provided by the manufacturer with minor modifications. Human whole blood was collected into K2-EDTA venipuncture tubes. Whole blood samples were treated with either DMSO (0.3% final) or a serial dilution of compounds in DMSO for 60 minutes at 37° C. Basophils were then activated either with anti-FcεRI mAb or with fMLP. To activate basophils using the anti-FcεRI mAb; 50 μL of whole blood was mixed with 110 μL of stimulation buffer (B-BAT-STB) and 20 μl of anti-FcεRI (B-BAT-STCON). To activate basophils with fMLP; 50 μL of whole blood was mixed with 80 μL of stimulation buffer (B-BAT-STB) and 50 μL of fMLP (B-CCR-FMLP). Stimulation buffer was used as a negative control. 20 μL of the staining reagent (combination of anti-human CD63-FITC and anti-human CCR3-PE mAbs) was then added to each tube. The tubes were mixed gently and incubated for 25 minutes at 37° C. Subsequently, erythrocytes were lysed and fixed by the addition of 2 mL of lysing solution (B-BAT-LYR) for 10 minutes at room temperature. Cells were pelleted by centrifugation at 1200 rpm for 10 minutes at room temperature in a swing-out rotor. Supernatant was aspirated and cell pellet resuspended in 400 μL of wash buffer. Flow cytometric analysis of the basophil activation was performed on a FC500MPL flow cytometer (Beckman Coulter Inc., Fullerton, Calif.). CCR3-staining and side scatter were applied to gate at least 200 basophils that expressed a high density of CCR3. The percent CD63 positive cells within the gated basophil population were determined in different treatment groups and normalized to the vehicle control (0.3% DMSO) with anti-FcεRI mAb of fMLP stimulus as 100%. Final compound concentration was adjusted to correct for dilution effect of added reagents. The EC50 values were calculated from the analysis of the dose-response curves to a four-parameter equation.

PI3Kδ = PI3Kδ (Homo sapiens (Human), UniProt O00329); experiment: Enzymatic activity of PI3K isoforms, TR-FRET assay (PI3Kδ); format: biochemical; settings: 2× Km ATP, geometric mean if more than one value
Procedure: Enzymatic activity of the class I PI3K isoforms in the presence of the compounds of Table 1 and Compounds X, Y and Z was measured using a time-resolved fluorescence resonance energy transfer (TR-FRET) assay. The TR-FRET assay was used to monitor formation of the product 3,4,5-inositol triphosphate molecule (PIP3) as it competed with fluorescently labeled PIP3 for binding to the GRP-1 pleckstrin homology domain protein. An increase in […] product results in a decrease in TR-FRET signal as the labeled fluorophore is displaced from the GRP-1 protein binding site.
Class I PI3K isoforms were expressed and purified as heterodimeric recombinant proteins. All assay reagents and buffers for the TR-FRET assay were purchased from Millipore. PI3K isoforms were assayed under initial rate conditions in the presence of 25 mM Hepes (pH 7.4), and 2× Km ATP (75-500 μM), 2 μM PIP2, 5% glycerol, 5 mM MgCl2, 50 mM NaCl, 0.05% (v/v) Chaps, 1 mM dithiothreitol, 1% (v/v) DMSO at the following concentrations for each isoforms: PI3Kα, PI3Kβ, and PI3Kδ between 25 and 50 pM, and PI3Kγ at 2 nM. After an assay reaction time of 30 minutes at 25° C., reactions were terminated with a final concentration of 10 mM EDTA, 10 nM labeled-PIP3, and 35 nM Europium labeled GRP-1 detector protein before reading TR-FRET on an Envision plate reader (Ex: 340 nm; Em: 615/665 nm; […] delay and 500 μs read window).
Data were normalized based on positive ([…] wortmanin) and negative (DMSO) controls. α, β, δ, and γ IC50 values were calculated from the fit of the dose-response curves to a four-parameter equation. All IC50 values represent geometric mean values if more than one value was obtained. IC50 values were reported in units of nM.

Sequence of PI3Kδ (O00329 whole entry, the tested form may be a part, canonical isoform): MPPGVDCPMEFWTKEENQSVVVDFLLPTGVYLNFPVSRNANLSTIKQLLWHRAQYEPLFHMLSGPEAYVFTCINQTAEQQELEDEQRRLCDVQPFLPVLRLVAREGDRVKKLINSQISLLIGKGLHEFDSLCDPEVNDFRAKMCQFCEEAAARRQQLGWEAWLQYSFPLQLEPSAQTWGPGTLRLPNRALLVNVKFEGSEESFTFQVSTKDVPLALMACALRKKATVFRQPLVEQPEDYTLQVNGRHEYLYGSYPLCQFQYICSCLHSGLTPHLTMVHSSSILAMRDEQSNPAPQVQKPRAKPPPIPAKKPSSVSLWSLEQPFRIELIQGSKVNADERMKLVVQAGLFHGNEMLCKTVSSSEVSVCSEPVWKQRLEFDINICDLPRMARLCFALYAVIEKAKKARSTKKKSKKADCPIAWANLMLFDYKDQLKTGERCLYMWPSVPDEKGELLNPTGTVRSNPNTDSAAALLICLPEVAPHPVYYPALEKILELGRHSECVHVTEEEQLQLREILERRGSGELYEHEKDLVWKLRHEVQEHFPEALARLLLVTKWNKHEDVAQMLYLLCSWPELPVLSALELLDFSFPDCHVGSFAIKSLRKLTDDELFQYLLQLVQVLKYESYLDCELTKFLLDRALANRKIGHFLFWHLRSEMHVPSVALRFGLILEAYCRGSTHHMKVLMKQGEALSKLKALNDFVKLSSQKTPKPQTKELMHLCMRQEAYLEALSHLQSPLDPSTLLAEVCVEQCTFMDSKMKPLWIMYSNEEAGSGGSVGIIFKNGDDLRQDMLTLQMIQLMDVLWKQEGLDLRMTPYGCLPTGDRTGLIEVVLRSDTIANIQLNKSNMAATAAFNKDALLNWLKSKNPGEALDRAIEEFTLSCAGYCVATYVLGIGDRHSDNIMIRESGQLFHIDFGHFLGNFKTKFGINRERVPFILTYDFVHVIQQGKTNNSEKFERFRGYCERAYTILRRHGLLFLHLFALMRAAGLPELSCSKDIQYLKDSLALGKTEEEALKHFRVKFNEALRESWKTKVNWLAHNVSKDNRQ
Sequence of PI3Kδ (P27986 whole entry partner, the tested form may be a part, canonical isoform): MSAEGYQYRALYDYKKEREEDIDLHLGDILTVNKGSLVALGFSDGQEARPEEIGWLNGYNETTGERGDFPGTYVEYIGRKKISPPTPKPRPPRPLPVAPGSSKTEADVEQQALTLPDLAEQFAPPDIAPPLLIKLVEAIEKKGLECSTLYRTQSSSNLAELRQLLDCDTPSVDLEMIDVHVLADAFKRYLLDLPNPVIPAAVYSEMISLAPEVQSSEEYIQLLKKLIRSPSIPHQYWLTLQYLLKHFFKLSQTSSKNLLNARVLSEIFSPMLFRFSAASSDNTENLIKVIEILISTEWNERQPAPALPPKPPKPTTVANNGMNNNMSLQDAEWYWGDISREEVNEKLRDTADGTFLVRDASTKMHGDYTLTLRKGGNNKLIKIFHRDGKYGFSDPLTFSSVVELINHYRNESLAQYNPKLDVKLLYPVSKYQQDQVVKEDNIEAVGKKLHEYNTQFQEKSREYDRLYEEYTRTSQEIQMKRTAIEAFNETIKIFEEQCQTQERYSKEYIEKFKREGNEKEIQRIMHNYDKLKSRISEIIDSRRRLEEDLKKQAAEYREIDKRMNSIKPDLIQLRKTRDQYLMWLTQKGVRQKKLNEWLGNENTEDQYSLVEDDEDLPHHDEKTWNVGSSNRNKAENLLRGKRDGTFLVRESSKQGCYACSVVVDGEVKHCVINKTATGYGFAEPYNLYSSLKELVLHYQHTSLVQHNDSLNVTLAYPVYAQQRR

EC50 (basophils; class symbol)	EC50 (basophils; geometric mean)	IC50 (PI3Kδ)	EC50 (basophils; Homo sapiens, class symbol)	EC50 (basophils; Homo sapiens, geometric mean)	Structure (SMILES)
1 to 10 nM	2 nM	4 nM	–	–	Cc1ccncc1-n1c([C@H](C)Nc2nc(N)nc(N)c2C#N)nc2ccc(F)c(Cl)c2c1=O (atropisomer, axis not shown) [Compound 43, (S)-2,4-diamino-6-(1-(5-chloro-6-fluoro-3-(4-methylpyridin-3-yl)-4-oxo-3,4-dihydroquinazolin-2-yl)ethylamino)pyrimidine-5-carbonitrile]
–	8 nM	27 nM	1 to 10 nM	–	Cc1ccncc1-n1c([C@H](C)Nc2nc(N)nc(N)c2C#N)nc2ccc(F)c(Cl)c2c1=O (atropisomer, axis not shown) [Compound 42, (S)-2,4-diamino-6-(1-(5-chloro-6-fluoro-3-(4-methylpyridin-3-yl)-4-oxo-3,4-dihydroquinazolin-2-yl)ethylamino)pyrimidine-5-carbonitrile]
–	–	5 nM	10 to 50 nM	16 nM	N#Cc1c(N)nc(N)nc1N[C@H](c1nc2ccc(F)c(Cl)c2c(=O)n1-c1cccnc1)C1CC1 [Compound 37, (S)-2,4-diamino-6-((5-chloro-6-fluoro-4-oxo-3-(pyridin-3-yl)-3,4-dihydroquinazolin-2-yl)(cyclopropyl)methylamino)pyrimidine-5-carbonitrile]
–	–	9 nM	1 to 10 nM	7 nM	Cc1ccncc1-n1c([C@H](C)Nc2nc(N)nc(N)c2C#N)nc2cccc(Cl)c2c1=O (atropisomer, axis not shown) [Compound 40, (S)-2,4-diamino-6-(1-(5-chloro-3-(4-methylpyridin-3-yl)-4-oxo-3,4-dihydroquinazolin-2-yl)ethylamino)pyrimidine-5-carbonitrile]
–	–	0.6 nM	–	–	C[C@H](Nc1nc(N)nc(N)c1C#N)c1nc2c(F)ccc(Br)c2c(=O)n1-c1cccnc1 [Compound 64, (S)-2,4-diamino-6-((1-(5-bromo-8-fluoro-4-oxo-3-(pyridin-3-yl)-3,4-dihydroquinazolin-2-yl)ethyl)amino)pyrimidine-5-carbonitrile]
–	–	14 nM	–	–	CC(C)C[C@H](Nc1nc(N)nc(N)c1C#N)c1nc2cccc(Cl)c2c(=O)n1-c1cncc(F)c1 [Compound 57, (S)-2,4-Diamino-6-((1-(5-chloro-3-(5-fluoropyridin-3-yl)-4-oxo-3,4-dihydroquinazolin-2-yl)-3-methylbutyl)amino)pyrimidine-5-carbonitrile]
–	–	1 nM	–	–	CC[C@H](Nc1nc(N)nc(N)c1C#N)c1nc2cccc(Cl)c2c(=O)n1-c1cncc(F)c1C (atropisomer, axis not shown) [Compound 72, (S)-2,4-diamino-6-((1-(5-chloro-3-(5-fluoro-4-methylpyridin-3-yl)-4-oxo-3,4-dihydroquinazolin-2-yl)propyl)amino)pyrimidine-5-carbonitrile]
–	–	60 nM	–	–	Cc1c(F)cncc1-n1c([C@@H](Nc2nc(N)nc(N)c2C#N)C2CC2)nc2cccc(Cl)c2c1=O (atropisomer, axis not shown) [Compound 69, (S)-2,4-diamino-6-(((5-chloro-3-(5-fluoro-4-methylpyridin-3-yl)-4-oxo-3,4-dihydroquinazolin-2-yl)(cyclopropyl)methyl)amino)pyrimidine-5-carbonitrile]

Further lines, the compound ahead of its results:

Structure (SMILES)	EC50 (basophils; class symbol)	EC50 (basophils; geometric mean)	IC50 (PI3Kδ)	EC50 (basophils; Homo sapiens, class symbol)	EC50 (basophils; Homo sapiens, geometric mean)
C[C@H](Nc1nc(N)nc(N)c1C#N)c1nc2cccc(C#N)c2c(=O)n1-c1cccnc1 [Compound 10, (S)-2-(1-((2,6-diamino-5-cyanopyrimidin-4-yl)amino)ethyl)-4-oxo-3-(pyridin-3-yl)-3,4-dihydroquinazoline-5-carbonitrile]	–	–	9 nM	10 to 50 nM	17 nM
C[C@H](Nc1nc(N)nc(N)c1C#N)c1nc2cccc(S(C)(=O)=O)c2c(=O)n1-c1cccnc1 [Compound 8, (S)-2,4-diamino-6-(1-(5-(methylsulfonyl)-4-oxo-3-(pyridin-3-yl)-3,4-dihydroquinazolin-2-yl)ethylamino)pyrimidine-5-carbonitrile]	–	–	9 nM	> 50 nM	100 nM
C[C@H](Nc1nc(N)nc(N)c1C#N)c1nc2cccc(Cl)c2c(=O)n1-c1cncc(Cl)c1 [Compound 13, (S)-2,4-diamino-6-(1-(5-chloro-3-(5-chloropyridin-3-yl)-4-oxo-3,4-dihydroquinazolin-2-yl)ethylamino)pyrimidine-5-carbonitrile]	–	–	8 nM	1 to 10 nM	4 nM
Cc1cccc2nc([C@H](C)Nc3nc(N)nc(N)c3C#N)n(-c3cccnc3)c(=O)c12 [Compound 7, (S)-2,4-diamino-6-(1-(5-methyl-4-oxo-3-(pyridin-3-yl)-3,4-dihydroquinazolin-2-yl)ethylamino)pyrimidine-5-carbonitrile]	–	–	0.4 nM	< 1 nM	0.3 nM
Cc1cncc(-n2c([C@H](C)Nc3nc(N)nc(N)c3C#N)nc3cccc(Cl)c3c2=O)c1 [Compound 16, (S)-2,4-diamino-6-(1-(5-chloro-3-(5-methylpyridin-3-yl)-4-oxo-3,4-dihydroquinazolin-2-yl)ethylamino)pyrimidine-5-carbonitrile]	–	–	1 nM	< 1 nM	0.7 nM
C[C@H](Nc1nc(N)nc(N)c1C#N)c1nc2c(F)ccc(C#N)c2c(=O)n1-c1cccnc1 [Compound 34, (S)-2-(1-((2,6-diamino-5-cyanopyrimidin-4-yl)amino)ethyl)-8-fluoro-4-oxo-3-(pyridin-3-yl)-3,4-dihydroquinazoline-5-carbonitrile]	–	–	21 nM	10 to 50 nM	22 nM
C[C@H](Nc1nc(N)nc(N)c1C#N)c1nc2ccc(F)c(Cl)c2c(=O)n1-c1cccnc1 [Compound 36, (S)-2,4-diamino-6-(1-(5-chloro-6-fluoro-4-oxo-3-(pyridin-3-yl)-3,4-dihydroquinazolin-2-yl)ethylamino)pyrimidine-5-carbonitrile]	–	–	4 nM	1 to 10 nM	2 nM
N#Cc1c(N)nc(N)nc1N[C@@H](CC1CC1)c1nc2cccc(Cl)c2c(=O)n1-c1cccnc1 [Compound 4, (S)-2,4-diamino-6-(1-(5-chloro-4-oxo-3-(pyridin-3-yl)-3,4-dihydroquinazolin-2-yl)-2-cyclopropylethylamino)pyrimidine-5-carbonitrile]	–	–	5 nM	10 to 50 nM	22 nM
C[C@H](Nc1nc(N)nc(N)c1C#N)c1nc2c(F)ccc(F)c2c(=O)n1-c1cccnc1 [Compound 25, (S)-2,4-diamino-6-(1-(5,8-difluoro-4-oxo-3-(pyridin-3-yl)-3,4-dihydroquinazolin-2-yl)ethylamino)pyrimidine-5-carbonitrile]	–	–	8 nM	10 to 50 nM	11 nM
C[C@H](Nc1nc(N)nc(N)c1C#N)c1nc2cccc(Cl)c2c(=O)n1-c1cncc(C(F)(F)F)c1 [Compound 18, (S)-2,4-diamino-6-(1-(5-chloro-4-oxo-3-(5-(trifluoromethyl)pyridin-3-yl)-3,4-dihydroquinazolin-2-yl)ethylamino)pyrimidine-5-carbonitrile]	–	–	18 nM	10 to 50 nM	22 nM
